# Test results from US20230212163A1, “2-(HET)ARYL-SUBSTITUTED CONDENSED HETEROCYCLIC DERIVATIVES AS PEST CONTROL AGENTS” (Bayer Aktiengesellschaft, priority 2020, published 2023).
# Read-outs that look alike come from different tables or passages of the source.
# Columns and labels:
# [1] = logP by HPLC on reversed-phase column (C18); assay type: physicochemical; settings: LC-UV
# Experimental: The logP values were determined according to EEC Directive 79/831 Annex V.A8 by HPLC (high-performance liquid chromatography) on a reversed-phase column (C18) using the following methods: ^[a]The logP value is determined by LC-UV measurement in the acidic range using 0.9 ml/l formic acid in water and 1.0 ml/l formic acid in acetonitrile as mobile phases (linear gradient from 10% acetonitrile to 95% acetonitrile). ^[b]The logP value is determined by LC-UV measurement in the neutral range using 0.001 molar ammonium acetate solution in water and acetonitrile as mobile phases (linear gradient from 10% acetonitrile to 95% acetonitrile). Calibration was carried out using straight-chain alkan-2-ones (having 3 to 16 carbon atoms) with known logP values. The values between successive alkanones are determined by linear regression.
# Phaedon cochleariae = Phaedon cochleariae spray test; assay type: in vivo; settings: application rate 100 g/ha, after 7 days
# Experimental: (§1) [table] To produce a suitable active compound formulation, 1 part by weight of active compound is dissolved using the stated parts by weight of solvent and made up with water containing an emulsifier concentration of 1000 ppm until the desired concentration is attained. To produce further test concentrations, the formulation is diluted with emulsifier-containing water. Discs of Chinese cabbage leaves (Brassica pekinensis) are sprayed with an active compound formulation of the desired concentration and, after drying, populated with larvae of the mustard beetle (Phaedon cochleariae). After 7 days, the efficacy in % is determined. 100% means that all the beetle larvae have been killed; 0% means that no beetle larvae have been killed.
# Myzus persicae = Myzus persicae oral test; assay type: in vivo; settings: 120 h, application rate 4 ppm, after 5 days, read-out: efficacy
# Experimental: [table] To produce a suitable active compound formulation, 1 part by weight of active compound is dissolved using the specified parts by weight of solvent and made up with water until the desired concentration is attained. 50 μl of the active compound formulation are transferred into microtitre plates and made up to a final volume of 200 μl with 150 μl of IPL41 insect medium (33%+15% sugar). Subsequently, the plates are sealed with parafilm, which a mixed population of green peach aphids (Myzus persicae) within a second microtitre plate is able to puncture and imbibe the solution through. After 5 days, the efficacy in % is determined. 100% means that all the aphids have been killed; 0% means that no aphids have been killed.
# Spodoptera frugiperda [2] = assay: Spodoptera frugiperda spray test (maize leaf discs); assay type: in vivo; settings: Spodoptera frugiperda, foliar, 168 h, application rate 100 g/ha, after 7 days
# Experimental: as §1, with “water. Leaf discs” for “water. Discs”, “of maize (Zea mays)” for “of Chinese cabbage leaves (Brassica pekinensis)”, “with caterpillars” for “with larvae”, “the fall armyworm (Spodoptera frugiperda).” for “the mustard beetle (Phaedon cochleariae).”, “the caterpillars” for “the beetle larvae”, “no caterpillar has” for “no beetle larvae have”
# Heliothis armigera = Heliothis armigera spray test (HELIAR), comparative; assay type: in vivo; settings: Helicoverpa armigera, 168 h, 7 dat, read-out: % efficacy
# Experimental: (§2) [table] To produce a suitable active compound formulation, 1 part by weight of active compound is dissolved using the stated parts by weight of solvent and made up with water containing an emulsifier concentration of 1000 ppm until the desired concentration is attained. To produce further test concentrations, the formulation is diluted with emulsifier-containing water. If the addition of ammonium salts or/and penetrants is required, these are each added in a concentration of 1000 ppm to the formulation solution. Cotton plants (Gossypium hirsutum) are sprayed with an active compound formulation of the desired concentration and, after drying, populated with caterpillars of the cotton bollworm (Heliothis armigera). After the desired time, the kill in % is determined. 100% means that all caterpillars have been killed; 0% means that none of the caterpillars have been killed.
# Plutella xylostella = Plutella xylostella spray test (PLUTMA), comparative; assay type: in vivo; settings: 168 h, 7 dat, read-out: % efficacy
# Experimental: as §2, with “solution. Cabbage leaves (Brassica oleracea)” for “solution. Cotton plants (Gossypium hirsutum)”, “concentration and infected” for “concentration and, after drying, populated”, “with larvae” for “with caterpillars”, “the diamondback moth (Plutella xylostella).” for “the cotton bollworm (Heliothis armigera).”
# Spodoptera frugiperda [3] = assay: Spodoptera frugiperda spray test (SPODFR, cotton leaves), comparative; assay type: in vivo; settings: 168 h, 7 dat, read-out: % efficacy
# Experimental: as §2, with “leaves” for “plants”, “and” for “and, after drying,”, “armyworm (Spodoptera frugiperda).” for “cotton bollworm (Heliothis armigera).”
# Diabrotica balteata = Diabrotica balteata spray test; assay type: in vivo; settings: Diabrotica balteata, 168 h, after 7 days; for pest or weed control at 31.25 g/ha: application rate 31.25 g/ha (=10 μg/cavity); for pest or weed control at 31.25 g/ha / pest or weed control at 125 g/ha / pest or weed control at 500 g/ha: read-out: efficacy; for pest or weed control at 125 g/ha: application rate 125 g/ha (=40 μg/cavity); for pest or weed control at 500 g/ha: application rate 500 g/ha (=160 μg/cavity); for pest or weed control at 100 g/ha: application rate 100 g/ha; for pest or weed control at 20 g/ha: application rate 20 g/ha
# Experimental: [table] To produce a suitable active compound formulation, 1 part by weight of active compound is dissolved using the stated parts by weight of solvent and made up with water containing an emulsifier concentration of 1000 ppm until the desired concentration is attained. To produce further test concentrations, the formulation is diluted with emulsifier-containing water. Pre-swollen wheat grains (Triticum aestivum) are incubated in a multiwell plate filled with agar and a little water for one day (5 seed grains per cavity). The germinated wheat grains are sprayed with an active compound formulation of the desired concentration. Subsequently, each cavity is infected with 10-20 beetle larvae of Diabrotica balteata. After 7 days, the efficacy in % is determined. 100% means that all wheat plants have grown as in the untreated, uninfected control; 0% means that no wheat plant has grown.
# Nezara viridula = Nezara viridula spray test; assay type: in vivo; settings: Nezara viridula, 96 h, application rate 500 g/ha, after 4 days
# Experimental: [table] To produce a suitable active compound formulation, 1 part by weight of active compound is dissolved using the stated parts by weight of solvent and made up with water containing an emulsifier concentration of 1000 ppm until the desired concentration is attained. To produce further test concentrations, the formulation is diluted with emulsifier-containing water. Barley plants (Hordeum vulgare) are sprayed with an active compound formulation of the desired concentration and are infected with larvae of the Southern green shield bug (Nezara viridula). After 4 days, the efficacy in % is determined. 100% means that all of the shield bugs have been killed; 0% means that none of the shield bugs have been killed.
# [4] = neutral range, ammonium acetate/acetonitrile, read-out: logP (neutral)
Structure (SMILES),pest or weed control at 4 ppm (Myzus persicae) [%],pest or weed control at 100 g/ha (Spodoptera frugiperda [2]) [%],pest or weed control at 100 g/ha (Diabrotica balteata) [%],pest or weed control at 500 g/ha (Nezara viridula) [%],pest or weed control at 20 g/ha (Diabrotica balteata) [%],further results
"O=S(=O)(c1ccc2oc(-c3nc(F)ccc3F)nc2c1)C(F)(F)F [2-(3,6-Difluoro-2-pyridyl)-5-(trifluoromethylsulfonyl)-1,3-benzoxazole]",,,,,,"chromatographic logP [1, 4]: 3.06"
"CCSc1ccc(F)nc1-c1nc2cc(S(=O)(=O)C(F)(F)F)ccc2o1 [2-(3-Ethylsulfanyl-6-fluoro-2-pyridyl)-5-(trifluoromethylsulfonyl)-1,3-benzoxazole]",,,,,,"chromatographic logP ([1]; acidic range, formic acid in water/acetonitrile, read-out: logP (acidic)): 4.13"
"CCS(=O)(=O)c1ccc(F)nc1-c1nc2cc(S(=O)(=O)C(F)(F)F)ccc2o1 [2-(3-Ethylsulfonyl-6-fluoro-2-pyridyl)-5-(trifluoromethylsulfonyl)-1,3-benzoxazole]",,,,,,"chromatographic logP [1, 4]: 3.11"
CCS(=O)(=O)c1ccc(N2N=CC(c3ccccc3)C2=O)nc1-c1nc2cc(S(=O)(=O)C(F)(F)F)ccc2o1 (centres unmarked) [Example I-01],100,100,,,,activity (Phaedon cochleariae): 100%
CCS(=O)(=O)c1ccc(-n2ncn(-c3ccc(Cl)cc3)c2=O)nc1-c1nc2cc(S(=O)(=O)C(F)(F)F)ccc2o1 [Example I-02],90,100,,,,Emax at 0.8 ppm (Heliothis armigera): 100%; Emax at 4 ppm (Heliothis armigera): 100%; activity (Phaedon cochleariae): 100%; Emax at 0.8 ppm (Plutella xylostella): 100%; Emax at 0.8 ppm (Spodoptera frugiperda [3]): 100%
CCS(=O)(=O)c1ccc(-n2ncn(-c3ccc(Br)cc3)c2=O)nc1-c1nc2cc(S(=O)(=O)C(F)(F)F)ccc2o1 [Example I-05],100,100,,,,pest or weed control at 31.25 g/ha (Diabrotica balteata): 100%; pest or weed control at 125 g/ha (Diabrotica balteata): 100%; pest or weed control at 500 g/ha (Diabrotica balteata): 100%
CCS(=O)(=O)c1ccc(-n2ncn(-c3ccc(C#N)cc3)c2=O)nc1-c1nc2cc(S(=O)(=O)C(F)(F)F)ccc2o1 [Example I-06],90,100,,,,pest or weed control at 31.25 g/ha (Diabrotica balteata): 100%; pest or weed control at 125 g/ha (Diabrotica balteata): 100%; pest or weed control at 500 g/ha (Diabrotica balteata): 100%
"CCS(=O)(=O)c1ccc(-n2ncn(-c3cccc(F)c3)c2=O)nc1-c1nc2cc(S(=O)(=O)C(F)(F)F)ccc2o1 [Example I-14, 2-[5-Ethylsulfonyl-6-[5-(trifluoromethylsulfonyl)-1,3-benzoxazol-2-yl]-2-pyridyl]-4-(3-fluorophenyl)-1,2,4-triazol-3-one]",90,100,100,,,"pest or weed control at 500 g/ha (Diabrotica balteata): 100%; chromatographic logP [1, 4]: 3.43"
CCS(=O)(=O)c1ccc(-n2ncn(-c3cccc(I)c3)c2=O)nc1-c1nc2cc(S(=O)(=O)C(F)(F)F)ccc2o1 [Example I-16],90,100,100,,,pest or weed control at 500 g/ha (Diabrotica balteata): 100%
CCS(=O)(=O)c1ccc(-n2ncn(-c3ccc(Cl)cc3)c2=O)nc1-c1nc2cc(C(F)(F)C(F)(F)F)ccc2o1 [Example I-45],,100,100,100,80,
CCS(=O)(=O)c1ccc(-n2ncn(-c3cccc(Cl)c3)c2=O)nc1-c1nc2cc(C(F)(F)C(F)(F)F)ccc2o1 [Example I-46],,100,80,90,100,
CCS(=O)(=O)c1ccc(-n2ncn(-c3cccc(F)c3)c2=O)nc1-c1nc2cc(C(F)(F)C(F)(F)F)ccc2o1 [Example I-47],,100,80,100,80,
CCS(=O)(=O)c1ccc(-n2ncn(-c3ccc(F)cc3)c2=O)nc1-c1nc2cc(S(=O)(=O)C(F)(F)C(F)(F)F)ccc2o1 [Example I-52],,100,100,100,100,
CCS(=O)(=O)c1ccc(-n2ncn(-c3ccc(F)cc3)c2=O)nc1-c1nc2cc(C(F)(F)C(F)(F)F)ccc2o1 [Example I-56],,100,100,100,100,
"CCc1nc(C(F)(F)F)cc2nc(-c3nc(-n4ncn(-c5ccc(O)cc5)c4=O)ccc3S(=O)(=O)CC)n(C)c12 [I-016 Known from WO2018/141954, reference compound]",,,,,,Emax at 0.8 ppm (Heliothis armigera): 10%; Emax at 4 ppm (Heliothis armigera): 55%; Emax at 0.8 ppm (Plutella xylostella): 70%; Emax at 0.8 ppm (Spodoptera frugiperda [3]): 65%
"CCS(=O)(=O)c1ccc(-n2cnn(-c3ccccc3F)c2=O)nc1-c1nc2cc(C(F)(F)F)ccc2n1C [I-34 Known from WO2017/055185, reference compound]",,,,,,Emax at 4 ppm (Heliothis armigera): 0%; Emax at 4 ppm (Plutella xylostella; 4 ppm): 0%; Emax at 0.8 ppm (Spodoptera frugiperda [3]): 0%
